According to patent publication US20190203409A1, “ANTIBACTERIAL REGENERATED CELLULOSIC FIBERS AND PROCESS OF PREPARATION THEREOF” (GRASIM INDUSTRIES LIMITED, priority 2016, published 2019):

System: S. Aureus
Assay: AATCC 147-2013 antibacterial test
Type: cell-based
Conditions: 0.5% concentration to weight of cellulose
Procedure: An antibacterial agent is used in Standard VSF or Modal or Lyocell manufacturing process to improve antibacterial performance of fiber. A small amount of chemical DDAC (i.e. 0.05-1% on weight of cellulose fiber) is infused by the way of: pouring or spraying or soaking or coating or padding or dipping and the like on the fiber during fiber manufacturing process and then fibers were dried and finally packed into the bales. The resultant fiber was then evaluated for antibacterial performance in external biological laboratory as per standard test methods.

Oc1cc(Cl)ccc1Oc1ccc(Cl)cc1Cl [Triclosan]
antibacterial activity (in words): did not demonstrate any antibacterial activity
